Source: US6576780B1, “Hydroxyamidino derivatives useful as nitric oxide synthase inhibitors” (GD Searle & Company, priority 1996, dated 2003)
pIC50: −log10 of the molar value. Structures can show the parent of a compound that is named as a salt.

Tests used:
[1] = biological target: T1, mouse inducible NOS (miNOS) (Mus musculus, UniProt P29477); test: Citrulline assay for nitric oxide synthase, miNOS; assay type: biochemical; conditions: partially purified enzyme from LPS-treated RAW 264.7 cells
T1 construct: prepared from an extract of LPS-treated mouse RAW 264.7 cells; endogenous in cells; host or cells: LPS-treated mouse RAW 264.7 cells
Experimental: (§1) NOS activity was measured by monitoring the conversion of L-[2,3-^3H]-arginine to L-[2,3- H]-citrulline. Mouse inducible NOS (miNOS) was prepared from an extract of LPS-treated mouse RAW 264.7 cells and rat brain constitutive NOS (rnNOS) was prepared from an extract of rat cerebellum. Both preparations were partially purified by DEAE-Sepharose chromatography. Enzyme (10 μL) was added to 40 μL of 50 mM Tris (pH 7.6) and the reaction initiated by the addition of 50 μL of a solution containing 50 mM Tris (pH 7.6), 2.0 mg/mL bovine serum albumin, 2.0 mM DTT, 4.0 mM CaCl2, 20 μM FAD, 100 &M tetrahydrobiopterin, 2.0 mM NADPH and 60 μM L-arginine containing 0.9 μCi of L-[2,3-^3H]-arginine. For constitutive NOS, calmodulin was included at a final concentration of 40 nM. Following incubation at 37° C. for 15 minutes, the reaction was terminated by addition of 300 μL cold buffer containing 10 mM EGTA, 100 mM HEPES (pH 5.5) and 1.0 mM L-citrulline. The [^3H]-citrulline was separated by chromatography on Dowex 50W X-8 cation exchange resin and radioactivity quantified with a liquid scintillation counter.

[2] = biological target: T2, rat brain constitutive NOS (rnNOS) (Rattus norvegicus, UniProt P29476); test: Citrulline assay for nitric oxide synthase, rnNOS; assay type: biochemical; conditions: partially purified enzyme from rat cerebellum
T2 construct: was prepared from an extract of rat cerebellum; from tissue; host or cells: rat cerebellum
Experimental: as §1

[3] = system: RAW 264.7 cells; test: Raw cell nitrite assay; assay type: cell-based; conditions: Mus musculus, RAW264.7, cultured RAW 264.7 cells, LPS-induced
Experimental: RAW 264.7 cells are plated to confluency on a 96-well tissue culture plate grown overnight (17 h) in the presence of LPS to induce NOS. A row of 3-6 wells were left untreated and served as controls for subtraction of nonspecific background. The media was removed from each well and the cells are washed twice with Kreb-Ringers-Hepes (25 mM, pH 7.4) with 2 mg/ml glucose. The cells are then placed on ice and incubated with […] of buffer containing L-arginine (30 mM) +/− inhibitors for 1 h. The assay is initiated by warming the plate to 37° C. in a water bath for 1 h. Production of nitrite by intracellular iNOS is linear with time. To terminate the cellular assay, the plate of cells is placed on ice and the nitrite-containing buffer removed and analyzed for nitrite using a previously published fluorescent determination for nitrite. T. P. Misko et al, Analytical Biochemistry, 214, 11-16 (1993). All values are the average of triplicate wells and are compared to a background-subtracted induced set of cells (100% value).

[4] = biological target: recombinant human inducible NOS (hiNOS) (Homo sapiens, UniProt P35228); test: Human in vitro enzyme data, hiNOS; assay type: biochemical
[5] = biological target: recombinant human endothelial constitutive NOS (hecNOS) (Homo sapiens, UniProt P29474); test: Human in vitro enzyme data, hecNOS; assay type: biochemical
[6] = biological target: recombinant human neuronal constitutive NOS (hncNOS) (Homo sapiens, UniProt P29475); test: Human in vitro enzyme data, hncNOS; assay type: biochemical
[7] = system: plasma nitrites induced by endotoxin (LPS); test: In vivo low-endotoxin (Low Dose LPS) assay; set-up: species or system rat; conditions: rats, LPS i.p., plasma nitrites 5 hours post-treatment
Experimental: Rats were treated with an intraperitoneal injection of 10 mg/kg of endotoxin (LPS) with or without oral administration of the nitric oxide synthase inhibitors. Plasma nitrites were measured 5 hours post-treatment.

C/C(=N\O)NCCCC[C@H](N)C(=O)O [Example 1, N^6-[1-(Hydroxyimino)ethyl]-L-lysine, Dihydrochloride]
pIC50 [1]: 4.11 | pIC50 [2]: 2.83 | pIC50 [3]: 4.55 | pIC50 [4]: 3.81 | pIC50 [5]: 2.83 | pIC50 [6]: 3.04 | Inhibition of LPS-induced plasma nitrite ([7]; 0.1 mg/kg/day p.o.): 0% inh. | Inhibition of LPS-induced plasma nitrite ([7]; 1 mg/kg/day p.o.): 54% inh. | Inhibition of LPS-induced plasma nitrite ([7]; 10 mg/kg/day p.o.): 97% inh.
